# Reference: PMC12682947, “Identification of New KCNT1‐Epilepsy Drugs by In Silico, Cell, and Drosophila Modeling” (Annals of Neurology, 2025)
# Counter-ions that a name gives are not always drawn.
# Biological target: T1, G288S mutant KCNT1 channels (Homo sapiens, UniProt Q5JUK3, G269S)
# T1 construct: YFP-6His; expressed in transfected cells; host or cells: HEK293T
# T1 sequence (Q5JUK3 1-1235 isoform Q5JUK3-3 G288S): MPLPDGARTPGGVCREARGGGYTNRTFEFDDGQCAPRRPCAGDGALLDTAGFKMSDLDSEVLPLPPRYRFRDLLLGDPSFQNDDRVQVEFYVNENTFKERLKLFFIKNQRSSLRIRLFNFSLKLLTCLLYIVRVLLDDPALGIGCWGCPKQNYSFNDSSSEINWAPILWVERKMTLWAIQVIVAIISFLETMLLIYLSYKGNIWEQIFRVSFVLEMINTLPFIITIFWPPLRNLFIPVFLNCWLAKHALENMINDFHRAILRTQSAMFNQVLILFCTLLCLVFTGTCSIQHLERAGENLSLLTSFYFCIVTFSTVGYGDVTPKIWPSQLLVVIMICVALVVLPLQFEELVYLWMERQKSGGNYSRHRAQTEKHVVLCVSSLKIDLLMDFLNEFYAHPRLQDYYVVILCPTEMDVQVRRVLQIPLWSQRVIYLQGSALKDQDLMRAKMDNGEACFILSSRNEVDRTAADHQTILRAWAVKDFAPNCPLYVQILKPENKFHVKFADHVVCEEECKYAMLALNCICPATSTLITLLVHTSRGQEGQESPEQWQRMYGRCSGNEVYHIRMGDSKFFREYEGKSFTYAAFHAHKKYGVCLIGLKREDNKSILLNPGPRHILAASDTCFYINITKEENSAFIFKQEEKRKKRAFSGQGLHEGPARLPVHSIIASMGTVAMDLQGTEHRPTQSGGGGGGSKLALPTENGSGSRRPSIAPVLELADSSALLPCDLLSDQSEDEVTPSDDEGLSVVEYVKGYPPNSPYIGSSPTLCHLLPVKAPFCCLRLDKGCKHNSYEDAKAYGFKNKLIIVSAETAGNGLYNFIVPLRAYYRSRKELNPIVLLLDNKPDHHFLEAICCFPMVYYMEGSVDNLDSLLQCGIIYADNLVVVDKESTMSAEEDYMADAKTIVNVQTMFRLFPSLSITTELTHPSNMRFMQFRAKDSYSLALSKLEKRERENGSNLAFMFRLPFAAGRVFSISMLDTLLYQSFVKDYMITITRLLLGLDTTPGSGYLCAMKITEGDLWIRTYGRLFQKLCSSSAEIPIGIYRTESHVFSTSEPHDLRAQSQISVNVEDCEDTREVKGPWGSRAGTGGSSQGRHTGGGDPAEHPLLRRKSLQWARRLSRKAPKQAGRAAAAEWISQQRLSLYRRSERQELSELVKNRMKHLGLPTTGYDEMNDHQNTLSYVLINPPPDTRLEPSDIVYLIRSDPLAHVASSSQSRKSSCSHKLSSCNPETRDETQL
# Test: Inside-out patch clamp of HEK293T cells expressing G288S KCNT1
# Assay type: cell-based
# Settings: inside-out patches, mean ± SEM
# Protocol: The CHO cells were cultured in Dulbecco's modified Eagle's Medium (ThermoFisher, UK) supplemented with 10% (v/v) fetal bovine serum, 50 U/ml penicillin and 0.05 mg/ml streptomycin, and incubated at 37°C in 5% CO2 atmosphere. For whole cell recording of WT/Y796H KCNT1, CHO cells were transiently co‐transfected with concatemeric WT/Y796H and EYFP, as described previously.[29] For electrophysiological experiments, cells were plated onto borosilicate glass cover slips and used 2 to 4 days later. Human embryonic kidney 293T cells (HEK293T) were cultured in the same manner, but with medium supplemented with 2 mM L‐glutamine, and 1% (v/v) nonessential amino acids. For excised inside‐out recording of homomeric WT or mutant YFP‐tagged KCNT1, HEK293T cells plated on glass cover slips were transfected using Attractene Transfection Reagent (Qiagen, Germany) according to the manufacturer's instructions and used 2 to 3 days later.
# Inside‐out patch clamp recordings were made at room temperature (23°C) from transiently transfected HEK293T cells, as described previously.[11] The pipette solution contained, in mM, 140 NaCl, 4 KCl, 2 CaCl2, 2 MgCl2, and 10 HEPES adjusted to pH 7.4 with NaOH. […] KCNT1 currents were recorded using 2 voltage protocols, depending on the number of active channels in the patch before drug application. Macroscopic currents (number of active channels > 15) were recorded in response to 100 ms voltage ramps between −120 and 120 mV applied every 2 seconds from a holding potential of −78 mV. […] With a lower number of active channels in the patch (3–15), current traces were recorded in response to 15‐second voltage steps to −20, 0, and 20 mV from a holding potential of −78 mV. Currents recorded at each voltage and each drug concentration were averaged over the duration of the trace and normalized to the average amplitudes of the corresponding current traces in drug‐free solution. […] Single channel data were analyzed using Ana software developed by Dr Michael Pusch (Istituto di Biofisica, Genova, Italy; http://users.ge.ibf.cnr.it/pusch/programs-mik.htm). […]
row,SMILES,IC50 [nM]
1,CC(C)c1c(C(=O)Nc2ccccc2)c(-c2ccccc2)c(-c2ccc(F)cc2)n1CC[C@@H](O)C[C@@H](O)CC(=O)O [atorvastatin],2600 ± 1600
2,Cc1c(O)cccc1C(=O)N[C@@H](CSc1ccccc1)[C@H](O)CN1C[C@H]2CCCC[C@H]2C[C@H]1C(=O)NC(C)(C)C [nelfinavir mesylate],9.5 ± 1.8
3,O=C(OCCN1CCN(c2cccc(C(F)(F)F)c2)CC1)c1ccccc1Nc1ccnc2cc(C(F)(F)F)ccc12 [antrafenine],13.3 ± 3.7
